System: Human umbilical vein endothelial cells (HUVECs)
Assay: eNOS activity analysis: NO, ONOO− and NO/ONOO− release from HUVECs of 50 genotyped donors in response to LA-419 (Example 2)
Type: cell-based
Details: for % Change ONOO− (mean ± sd) / % Change NO (mean ± sd) / % Change NO/ONOO− (mean ± sd): LA-419 5 μM vs control; for Fold difference NO production / Fold difference NO/ONOO− ratio: LA-419 5 μM/control; for % Change Ratio, % Change NO/% Change ONOO− (mean ± sd) / Net increase over control NO (mean ± sd) / Net increase over control NO/ONOO− (mean ± sd) / Net increase over control ONOO− (mean ± sd) / Peak release NO (mean ± sd) / Peak release NO/ONOO− (mean ± sd) / Peak release ONOO− (mean ± sd): LA-419 5 μM
Description: Concurrent measurements of NO and ONOO^− were carried out with tandem electrochemical nanosensors combined into one working unit with a total diameter of 200-500 nm (FIG. 1). Their design was based on previously developed and well-characterized chemically modified carbon-fiber technology (Malinski and Taha, 1992; Lvovich and Scheeline, 1997). Each of the nanosensors was made by depositing a sensing material on the tip of a carbon fiber (length 4-5 μm, diameter 0.2-0.5 μm). The fibers were sealed with nonconductive epoxy and electrically connected to copper wires with conductive silver epoxy. A conductive film of polymeric nickel (II) tetrakis(3-methoxy-4-hydroxyphenyl)porphyrin for the NO-sensor and polymeric film of Mn (III) [2.2]paracyclophanylporphyrin was used for the ONOO^−-sensor.
A module of NO/ONOO^− nanosensors (diameter 1-2 μm) with a platinum wire (0.1 mm) counter electrode and saturated calomel reference electrode (SCE) were applied. Differential pulse voltammetry (DPV) and amperometry were performed with a computer-based Gamry VFP600 multichannel potentiostat. DPV was used to measure the basal NO and ONOO^− concentrations, and amperometry was used to measure changes in NO and ONOO^− concentrations from its basal level with time. The DPV current at the peak potential characteristic for NO oxidation (0.65 V) and ONOO^− reduction (−0.45 V) was directly proportional to the local concentrations of these compounds in the immediate vicinity of the sensor. Linear calibration curves (current vs. concentration) were constructed for each sensor from 10 nM to 3 μM before and after measurements with aliquots of NO and ONOO^− standard solutions, respectively. The detection limit of the sensors was 1.0 nM.
The quantification of each analyte (concentration in nM) was performed using a maximum current from amperograms and standard calibration curves. A reproducibility of measurements with nanosensors is relatively high (between 5-12%). […] The sensors were slowly raised 5±2 μm from the surface of a single endothelial cell. The eNOS agonist, calcium ionophore A23187 (CaI) as well as the different drugs were then added to the surrounding media at the cell surface with a nanoinjector that was also positioned by a computer controlled-micromanipulator.
This example describes the genotype-specific response of the three major eNOS variants to 1 μM and 5 μM concentrations of LA-419. The three major genetic polymorphisms studied were the Glu298Asp variant (E298D or 894G→T) in exon 7 of […], the −786T→C variant in the promoter region, and the intron 4 polymorphism (VNTR). All of these variants have possible effects on the cardiovascular system and endothelial dysfunction. For this study, human umbilical vein endothelial cells (HUVECs) from 50 donors between 18 and 32 years of age were used.
For the analysis several analysis techniques were employed. First, the effect of genotype on NO and ONOO^− release was explored within the different concentrations of LA-419 (control, 1 μM, 5 μM), calculated as the average peak release (nmols/L) of NO, ONOO^−, and NO/ONOO^−. The effect of genotype on the net increase in NO, ONOO^−, and NO/ONOO^− for LA-419 (1 μM and 5 μM) as compared to control was also measured. In addition, an analysis was done on the effect of genotype on the % change in NO, ONOO^−, and NO/ONOO^− production for LA-419 (1 μM and 5 μM), calculated as:
% Change=[(avg. LA-419−avg. control)/(avg. control)]*100
Finally, an evaluation was undertaken concerning the effect of genotype on the production of NO, ONOO^−, and NO/ONOO^− as the fold difference of control for LA-419 (1 μM and 5 μM), calculated as:
Fold Difference=(avg. LA-419)/(avg. control)
Within each calculation technique the results were compared for statistical significance using a non-parametric ANOVA Kruskal-Wallace test or a non-parametric Mann-Whitney U test. Statistical significance was set at a p-value <0.05 in a two-tailed distribution. […]

[1] = Caucasians, exon 7 major allele homozygote
[2] = Caucasians, exon 7 minor allele carriers
[3] = exon 7 major allele homozygote, all races
[4] = exon 7 minor allele carriers, all races
[5] = HUVECs G894T + T-786C Combination of all genotypes other than G/G + T/T
[6] = HUVECs G894T + T-786C variant G/G + T/C
[7] = HUVECs G894T + T-786C variant G/G + T/T (Reference)
[8] = HUVECs G894T + T-786C variant G/T + C/C
[9] = HUVECs G894T + T-786C variant G/T + T/C
[10] = HUVECs G894T + T-786C variant G/T + T/T
[11] = HUVECs G894T + T-786C variant T/T + C/C
[12] = HUVECs G894T + T-786C variant T/T + T/C

Compound: CC(=O)SC1COC2C(O[N+](=O)[O-])COC12 (stereo not drawn) [LA-419, S-(6-Nitro-oxi-hexahydro-furo[3,2-b]furan-3-1-il)thioacetate]
- % Change ONOO− (mean ± sd) (HUVECs Intron 4 variant b/a): −19.70 (5.79) %
- % Change NO (mean ± sd) (HUVECs Intron 4 variant b/b): 13.52 (6.80) %
- % Change NO/ONOO− (mean ± sd) (HUVECs Intron 4 variant b/b): 42.24 (17.73) %
- % Change ONOO− (mean ± sd) (HUVECs Intron 4 variant b/b): −19.19 (7.76) %
- % Change NO (mean ± sd) (HUVECs Intron 4 variant c/c): 17.36 (0) %
- % Change NO/ONOO− (mean ± sd) (HUVECs Intron 4 variant c/c): 52.87 (0) %
- % Change ONOO− (mean ± sd) (HUVECs Intron 4 variant c/c): −22.99 (0) %
- % Change NO (mean ± sd) (HUVECs T-786C variant C/C): 11.63 (5.99) %
- % Change NO/ONOO− (mean ± sd) (HUVECs T-786C variant C/C): 42.33 (13.21) %
- % Change ONOO− (mean ± sd) (HUVECs T-786C variant C/C): −21.03 (7.77) %
- % Change NO (mean ± sd) (HUVECs T-786C variant T/C): 13.58 (6.82) %
- % Change NO/ONOO− (mean ± sd) (HUVECs T-786C variant T/C): 38.74 (13.67) %
- % Change ONOO− (mean ± sd) (HUVECs T-786C variant T/C): −17.73 (5.53) %
- % Change NO (mean ± sd) (HUVECs T-786C variant T/T): 16.16 (5.97) %
- % Change NO/ONOO− (mean ± sd) (HUVECs T-786C variant T/T): 49.09 (17.76) %
- % Change ONOO− (mean ± sd) (HUVECs T-786C variant T/T): −20.98 (8.19) %
- Fold difference NO production [1]: 1.19±0.07
- Fold difference NO/ONOO− ratio [1]: 1.47±0.12
- Fold difference NO production [2]: 1.11±0.05
- Fold difference NO/ONOO− ratio [2]: 1.35±0.10
- Fold difference NO production (Caucasians, promoter major allele variant): 1.17±0.08
- Fold difference NO production [3]: 1.16±0.06
- Fold difference NO/ONOO− ratio [3]: 1.48±0.18
- Fold difference NO production [4]: 1.13±0.06
- Fold difference NO/ONOO− ratio [4]: 1.39±0.13
- % Change Ratio, % Change NO/% Change ONOO− (mean ± sd) (HUVEC donor Race Asian): −0.50 (0)
- % Change Ratio, % Change NO/% Change ONOO− (mean ± sd) (HUVEC donor Race Black): −0.79 (0.44)
- % Change Ratio, % Change NO/% Change ONOO− (mean ± sd) (HUVEC donor Race Not Reported): −0.59 (0.08)
- Net increase over control NO (mean ± sd) [5]: 46.78 (22.38) nmols/L
- Net increase over control NO/ONOO− (mean ± sd) [5]: −0.87 (0.81)
- Net increase over control ONOO− (mean ± sd) [5]: −68.74 (26.87) nmols/L
- Peak release NO (mean ± sd) [5]: 398.12 (90.43) nmols/L
- Peak release NO/ONOO− (mean ± sd) [5]: 1.43 (0.54)
- Peak release ONOO− (mean ± sd) [5]: 304.95 (81.70) nmols/L
- Net increase over control NO (mean ± sd) [6]: 51.58 (25.77) nmols/L
- Net increase over control NO/ONOO− (mean ± sd) [6]: −0.78 (0.51)
- Net increase over control ONOO− (mean ± sd) [6]: −66.54 (26.77) nmols/L
- Peak release NO (mean ± sd) [6]: 397.25 (102.46) nmols/L
- Peak release NO/ONOO− (mean ± sd) [6]: 1.56 (0.60)
- Peak release ONOO− (mean ± sd) [6]: 277.33 (69.85) nmols/L
- Net increase over control NO (mean ± sd) [7]: 56.59 (19.21) nmols/L
- Net increase over control NO/ONOO− (mean ± sd) [7]: −0.88 (0.54)
- Net increase over control ONOO− (mean ± sd) [7]: −77.59 (31.16) nmols/L
- Peak release NO (mean ± sd) [7]: 399.67 (56.96) nmols/L
- Peak release NO/ONOO− (mean ± sd) [7]: 1.48 (0.48)
- Peak release ONOO− (mean ± sd) [7]: 293.93 (83.07) nmols/L
- Net increase over control NO (mean ± sd) [8]: 46.00 (0) nmols/L
- Net increase over control NO/ONOO− (mean ± sd) [8]: −1.01 (0)
- Net increase over control ONOO− (mean ± sd) [8]: −45.67 (0) nmols/L
- Peak release NO (mean ± sd) [8]: 434.33 (0) nmols/L
- Peak release NO/ONOO− (mean ± sd) [8]: 1.72 (0)
- Peak release ONOO− (mean ± sd) [8]: 252.67 (0) nmols/L
- Net increase over control NO (mean ± sd) [9]: 43.72 (19.86) nmols/L
- Net increase over control NO/ONOO− (mean ± sd) [9]: −0.83 (0.84)
- Net increase over control ONOO− (mean ± sd) [9]: −65.59 (20.60) nmols/L
- Peak release NO (mean ± sd) [9]: 387.90 (86.10) nmols/L
- Peak release NO/ONOO− (mean ± sd) [9]: 1.34 (0.54)
- Peak release ONOO− (mean ± sd) [9]: 318.33 (82.55) nmols/L
- Net increase over control NO (mean ± sd) [10]: 52.83 (20.89) nmols/L
- Net increase over control NO/ONOO− (mean ± sd) [10]: −1.29 (1.15)
- Net increase over control ONOO− (mean ± sd) [10]: −71.50 (46.74) nmols/L
- Peak release NO (mean ± sd) [10]: 433.58 (65.75) nmols/L
- Peak release NO/ONOO− (mean ± sd) [10]: 1.71 (0.21)
- Peak release ONOO− (mean ± sd) [10]: 252.92 (13.69) nmols/L
- Net increase over control NO (mean ± sd) [11]: 35.33 (20.27) nmols/L
- Net increase over control NO/ONOO− (mean ± sd) [11]: −0.36 (0.18)
- Net increase over control ONOO− (mean ± sd) [11]: −94.89 (10.87) nmols/L
- Peak release NO (mean ± sd) [11]: 348.78 (92.48) nmols/L
- Peak release NO/ONOO− (mean ± sd) [11]: 1.19 (0.80)
- Peak release ONOO− (mean ± sd) [11]: 345.56 (123.07) nmols/L
- Net increase over control NO (mean ± sd) [12]: 53.00 (50.91) nmols/L
- Net increase over control NO/ONOO− (mean ± sd) [12]: −1.41 (1.74)
- Net increase over control ONOO− (mean ± sd) [12]: −64.83 (44.08) nmols/L
- Peak release NO (mean ± sd) [12]: 453.00 (178.19) nmols/L
- Peak release NO/ONOO− (mean ± sd) [12]: 1.23 (0.75)
- Peak release ONOO− (mean ± sd) [12]: 397.67 (96.64) nmols/L
- % Change Ratio, % Change NO/% Change ONOO− (mean ± sd) (HUVECs G894T variant G/G): −0.82 (0.40)
- Net increase over control NO (mean ± sd) (HUVECs G894T variant G/G): 55.05 (21.03) nmols/L
- Net increase over control NO/ONOO− (mean ± sd) (HUVECs G894T variant G/G): −0.85 (0.52)
- Net increase over control ONOO− (mean ± sd) (HUVECs G894T variant G/G): −74.19 (29.80) nmols/L
- Peak release NO (mean ± sd) (HUVECs G894T variant G/G): 398.92 (71.74) nmols/L
- Peak release NO/ONOO− (mean ± sd) (HUVECs G894T variant G/G): 1.50 (0.51)
